From PMC8717366, “Synthesis and Pharmacological Characterization of Visabron, a Backbone Cyclic Peptide Dual Antagonist of α4β1 (VLA-4)/α9β1 Integrin for Therapy of Multiple Sclerosis” (JACS Au, 2021)
Where two headings read alike, the source gives them in different places. Numbered stars: 1 amine (or outer) side, 2 acyl side, 3 side chain; on linkers, the order of the positions; unused ones are H or OH. Bridge positions count the residues as written; N and C are the ends. Square brackets hold non-standard residues; d marks the D form. Peptide text beside a SMILES is read from it. N(2-Aminoethyl)Gly = O=C(CN(CCN[*:3])[*:1])[*:2]; CO = O=C([*:1])[*:2]; Nlys = NCCCCNCC(=O)O

Key:
α5β1-fibronectin = biological target: T1, α5β1-fibronectin (Homo sapiens, UniProt P05556+P08648); experiment: Adhesion of wild-type K562 cells to immobilized fibronectin; type: cell-based; conditions: wild-type K562 (α5β1); 30 min at 37 °C; read-out: IC50 α5β1-fibronectin
T1 construct: host or cells: K562 wild type
T1 sequence (P08648 42-894 limits assumed): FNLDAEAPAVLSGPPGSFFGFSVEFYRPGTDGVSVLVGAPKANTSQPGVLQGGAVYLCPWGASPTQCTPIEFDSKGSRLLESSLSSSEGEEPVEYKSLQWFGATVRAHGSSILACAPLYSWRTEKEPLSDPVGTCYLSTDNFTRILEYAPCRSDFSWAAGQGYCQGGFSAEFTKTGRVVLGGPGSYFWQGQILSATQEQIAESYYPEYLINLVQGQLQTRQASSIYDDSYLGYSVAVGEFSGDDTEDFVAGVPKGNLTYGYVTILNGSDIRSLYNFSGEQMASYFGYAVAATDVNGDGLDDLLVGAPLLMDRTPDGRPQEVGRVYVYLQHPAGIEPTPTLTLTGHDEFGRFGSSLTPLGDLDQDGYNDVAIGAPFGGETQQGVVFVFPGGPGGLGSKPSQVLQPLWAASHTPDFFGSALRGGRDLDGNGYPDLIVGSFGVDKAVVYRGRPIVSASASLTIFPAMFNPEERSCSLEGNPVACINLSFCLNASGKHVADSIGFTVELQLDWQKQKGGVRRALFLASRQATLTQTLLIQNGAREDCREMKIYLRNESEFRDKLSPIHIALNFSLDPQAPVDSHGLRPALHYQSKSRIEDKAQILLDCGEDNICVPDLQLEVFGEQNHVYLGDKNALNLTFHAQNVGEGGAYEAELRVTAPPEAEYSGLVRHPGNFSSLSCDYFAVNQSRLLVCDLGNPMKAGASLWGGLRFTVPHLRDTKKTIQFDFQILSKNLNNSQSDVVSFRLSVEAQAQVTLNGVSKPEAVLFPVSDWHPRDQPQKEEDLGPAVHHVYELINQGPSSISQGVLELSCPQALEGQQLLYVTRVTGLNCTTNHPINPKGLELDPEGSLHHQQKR
T1 sequence (P08648 895-1049 limits assumed): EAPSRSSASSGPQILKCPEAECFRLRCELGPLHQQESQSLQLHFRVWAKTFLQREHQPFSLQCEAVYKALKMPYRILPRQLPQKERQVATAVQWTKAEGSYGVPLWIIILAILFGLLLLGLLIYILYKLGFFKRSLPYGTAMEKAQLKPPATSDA
T1 sequence (P05556 21-798): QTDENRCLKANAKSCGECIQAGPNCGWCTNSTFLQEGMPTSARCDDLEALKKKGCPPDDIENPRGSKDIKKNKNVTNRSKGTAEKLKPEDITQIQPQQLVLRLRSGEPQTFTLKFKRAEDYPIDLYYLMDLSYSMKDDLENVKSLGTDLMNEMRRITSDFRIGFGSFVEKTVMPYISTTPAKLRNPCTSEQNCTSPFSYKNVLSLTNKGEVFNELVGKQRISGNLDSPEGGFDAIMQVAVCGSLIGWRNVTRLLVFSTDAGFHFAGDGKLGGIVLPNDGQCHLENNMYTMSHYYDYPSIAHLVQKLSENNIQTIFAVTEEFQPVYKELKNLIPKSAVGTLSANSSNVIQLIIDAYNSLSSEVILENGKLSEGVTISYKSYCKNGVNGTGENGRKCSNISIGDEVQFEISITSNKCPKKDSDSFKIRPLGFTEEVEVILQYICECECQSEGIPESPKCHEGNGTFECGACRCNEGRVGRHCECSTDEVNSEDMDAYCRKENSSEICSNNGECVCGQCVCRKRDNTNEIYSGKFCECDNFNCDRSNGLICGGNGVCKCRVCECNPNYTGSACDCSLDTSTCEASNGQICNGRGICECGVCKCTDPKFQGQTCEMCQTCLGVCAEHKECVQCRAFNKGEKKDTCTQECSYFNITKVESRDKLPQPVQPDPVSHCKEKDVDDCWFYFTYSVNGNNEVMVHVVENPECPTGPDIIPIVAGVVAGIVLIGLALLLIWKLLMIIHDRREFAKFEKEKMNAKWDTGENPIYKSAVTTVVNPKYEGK
Procedure: (§1) Cell adhesion assay was carried out as previously described[47] with minor modifications. The day before the experiment, each well was coated with VCAM-1 (3 mg/mL) immobilized on the 96-well plate in PBS by overnight incubation at 4 °C. Thereafter, nonspecific binding was blocked by incubating the wells with 1% (w/v) bovine serum albumin (BSA) in Hank’s Balanced Salt Solution (HBSS) containing 5 mM MgCl2 at room temperature for 1 h before use. The cells were labeled by incubation with 12.5 μM 5-chloromethylfluorescein diacetate (CMFDA) in HBSS without 1% BSA at 37 °C for 30 min. The labeled cells were then centrifuged at 1000 rpm and washed twice with HBSS containing 1% BSA to remove excess CMFDA. Labeled cells (about 1 × 10^5 cells/well) were plated on each well in the presence or absence of visabrons and incubated at 37 °C for 60 min. Unbound cells were removed by washing the wells three times with 1% (w/v) BSA in HBSS, and bound cells were lysed by the addition of 0.5% Triton X-100 (diluted in DDW). The fluorescence in each well was quantified with a SPECTRAFluor Plus plate reader (Tecan), at λex = 485 nm and λem = 530 nm. To determine the number of adhered cells from the fluorescence values, a standard curve was generated by serial dilution of known numbers of CMFDA-labeled cells. […]
(§2) Table S6. TMLD- linear peptides inhibition of adhesion of integrin expressing cells to the respective immobilized ligands a a The cells were incubated for 30 min at 37 °C with the cells (1 x 105) in the 96 -well plate, previously covered with extracellular matrix ligand, in 100 µL of HBSS containing calcium and magnesium. After being washed with the same buffer, the adhered cells were lysed by Triton X-100, and the plate was read using Tecan spectrofluorimeter. The inhibitory dose 50% (IC 50) values represent ing mean ± standard deviatio ns (n=6) were calculated from dose response curves. bJurkat cells,VCAM -1; c α9-SW480 overexpressing cells, VCAM-1; d α1-K562 overexpressing cells, collagen IV ;e α2-K562 overexpressing cells, collagen I; f K562 wild type

α4β1-VCAM-1 Fc chimera = biological target: T2, α4β1-VCAM-1 Fc chimera (Homo sapiens, UniProt P05556+P13612); experiment: ELISA solid-phase ligand-receptor binding, integrin α4β1 to VCAM-1 Fc chimera
T2 construct: purchased R&D Systems Co (Minneapolis, MN)
Procedure: (§3) Recombinant human VCAM-1 and MadCAM-1 (3 mg/mL in phosphate-buffered saline containing divalent cations), were immobilized on the wells of a 96-well ELISA plate (Dynatech Immulon) by overnight incubation at 4 °C. After washing with HBSST (Hanks’ Balanced Salt solution containing calcium and magnesium and 0.05% Tween-20) the plates were blocked with 5% BSA in HBSST by incubation at 37 °C for 1 h. The plates were washed with HBSST, and recombinant human integrin α4β1 or α4β7 (3 mg/mL) was added in the presence or absence of competitor cyclic peptides, disintegrins, or monoclonal anti-integrin antibodies dissolved in HBSS containing 1% BSA. The plates were thereafter incubated at 30 °C for 3 h, as time-binding had reached a plateau, and then washed 3 times with HBSST. Bound integrins were quantitated using primary anti-integrin polyclonal and monoclonal antibodies at a concentration of 0.5 mg/mL in HBSST containing 1% BSA, and incubated at 37 °C for 1 h. The plates were washed 3 times with HBSST and secondary antibodies- alkaline phosphatase (AP) conjugated (Sigma Co.) were added at dilution 1:1000 and incubated at 37 °C for 1 h. Thereafter, the plates were washed 3 times with HBSST and twice with HBSS and the alkaline phosphatase substrate 4-nitrophenyl phosphate was added to the wells for 30 min. The plates were read using Tecan Spectrophotometer at 405 nm. The level of nonspecific binding was measured in each experiment by determining the level of binding to wells coated with BSA alone.

[1] = biological target: T3, α4β1 (Jurkat lymphocytes-VCAM-1) (Homo sapiens, UniProt P05556+P13612); experiment: Adhesion of Jurkat lymphocytes to immobilized VCAM-1; type: cell-based
T3 construct: host or cells: Jurkat (untreated or TNFα-treated)
Procedure: as §1, §2

α4β7-MAdCAM-1 Fc chimera = biological target: T4, α4β7-MAdCAM-1 Fc chimera (Homo sapiens, UniProt P13612+P26010); experiment: ELISA solid-phase ligand-receptor binding, integrin α4β7 to MAdCAM-1 Fc chimera
T4 construct: purchased R&D Systems Co (Minneapolis, MN)
Procedure: as §3

α2β1-collagen I = biological target: T5, α2β1-collagen I (Homo sapiens, UniProt P05556+P17301); experiment: Adhesion of α2-K562 overexpressor cells to immobilized collagen I; type: cell-based; conditions: α2-K562 overexpressed cells; 30 min at 37 °C; read-out: IC50 α2β1-collagen I
T5 construct: expressed in transfected cells; host or cells: K562 transfected with α2 integrin (gift of Dr. M. Hemler)
Procedure: as §1, §2

α1β1-collagen IV = biological target: T6, α1β1-collagen IV (Homo sapiens, UniProt P05556+P56199); experiment: Adhesion of α1-K562 overexpressor cells to immobilized collagen IV; type: cell-based; conditions: α1-K562 overexpressed cells; 30 min at 37 °C; read-out: IC50 α1β1-collagen IV
T6 construct: expressed in transfected cells; host or cells: K562 transfected with α1 integrin (gift of Dr. M. Hemler)
T6 sequence (P56199 29-1179): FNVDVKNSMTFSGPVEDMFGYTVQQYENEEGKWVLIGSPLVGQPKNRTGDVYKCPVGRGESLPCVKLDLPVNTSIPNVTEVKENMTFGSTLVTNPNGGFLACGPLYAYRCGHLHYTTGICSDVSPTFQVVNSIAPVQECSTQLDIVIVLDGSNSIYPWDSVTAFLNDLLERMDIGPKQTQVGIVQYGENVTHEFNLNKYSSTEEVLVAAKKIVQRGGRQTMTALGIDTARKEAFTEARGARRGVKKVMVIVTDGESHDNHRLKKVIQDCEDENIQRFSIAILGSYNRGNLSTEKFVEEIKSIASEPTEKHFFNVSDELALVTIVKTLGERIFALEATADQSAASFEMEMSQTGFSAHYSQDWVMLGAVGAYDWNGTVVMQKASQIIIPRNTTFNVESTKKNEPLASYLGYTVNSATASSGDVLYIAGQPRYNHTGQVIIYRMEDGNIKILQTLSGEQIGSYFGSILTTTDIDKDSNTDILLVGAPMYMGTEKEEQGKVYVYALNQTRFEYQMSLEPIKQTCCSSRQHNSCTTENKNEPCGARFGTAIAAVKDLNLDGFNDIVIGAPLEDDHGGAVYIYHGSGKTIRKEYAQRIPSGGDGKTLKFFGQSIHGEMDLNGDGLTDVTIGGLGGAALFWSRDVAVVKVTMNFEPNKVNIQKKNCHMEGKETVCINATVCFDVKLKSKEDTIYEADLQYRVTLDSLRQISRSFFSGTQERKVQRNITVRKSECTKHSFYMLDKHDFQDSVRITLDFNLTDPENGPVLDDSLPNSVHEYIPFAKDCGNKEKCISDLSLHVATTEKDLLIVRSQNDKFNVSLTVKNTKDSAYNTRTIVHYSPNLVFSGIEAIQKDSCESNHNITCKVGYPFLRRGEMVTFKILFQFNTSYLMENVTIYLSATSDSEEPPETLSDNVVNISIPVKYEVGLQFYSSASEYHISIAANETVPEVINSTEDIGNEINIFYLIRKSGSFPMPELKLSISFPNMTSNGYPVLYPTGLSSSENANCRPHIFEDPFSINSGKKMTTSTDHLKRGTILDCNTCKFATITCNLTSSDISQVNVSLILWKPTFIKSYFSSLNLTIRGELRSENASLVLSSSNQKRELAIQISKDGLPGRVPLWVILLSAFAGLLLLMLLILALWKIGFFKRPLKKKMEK
T6 sequence (P05556 21-798): as the sequence (P05556 21-798) above
Procedure: as §1, §2

α9β1-VCAM-1 Fc chimera = α9β1-VCAM-1 Fc chimera (Homo sapiens, UniProt P05556+Q13797); experiment: ELISA binding assay, α9β1 to VCAM-1 Fc chimera
α9β1-VCAM-1 Fc chimera, sequence (Q13797 30-1035, change not shown): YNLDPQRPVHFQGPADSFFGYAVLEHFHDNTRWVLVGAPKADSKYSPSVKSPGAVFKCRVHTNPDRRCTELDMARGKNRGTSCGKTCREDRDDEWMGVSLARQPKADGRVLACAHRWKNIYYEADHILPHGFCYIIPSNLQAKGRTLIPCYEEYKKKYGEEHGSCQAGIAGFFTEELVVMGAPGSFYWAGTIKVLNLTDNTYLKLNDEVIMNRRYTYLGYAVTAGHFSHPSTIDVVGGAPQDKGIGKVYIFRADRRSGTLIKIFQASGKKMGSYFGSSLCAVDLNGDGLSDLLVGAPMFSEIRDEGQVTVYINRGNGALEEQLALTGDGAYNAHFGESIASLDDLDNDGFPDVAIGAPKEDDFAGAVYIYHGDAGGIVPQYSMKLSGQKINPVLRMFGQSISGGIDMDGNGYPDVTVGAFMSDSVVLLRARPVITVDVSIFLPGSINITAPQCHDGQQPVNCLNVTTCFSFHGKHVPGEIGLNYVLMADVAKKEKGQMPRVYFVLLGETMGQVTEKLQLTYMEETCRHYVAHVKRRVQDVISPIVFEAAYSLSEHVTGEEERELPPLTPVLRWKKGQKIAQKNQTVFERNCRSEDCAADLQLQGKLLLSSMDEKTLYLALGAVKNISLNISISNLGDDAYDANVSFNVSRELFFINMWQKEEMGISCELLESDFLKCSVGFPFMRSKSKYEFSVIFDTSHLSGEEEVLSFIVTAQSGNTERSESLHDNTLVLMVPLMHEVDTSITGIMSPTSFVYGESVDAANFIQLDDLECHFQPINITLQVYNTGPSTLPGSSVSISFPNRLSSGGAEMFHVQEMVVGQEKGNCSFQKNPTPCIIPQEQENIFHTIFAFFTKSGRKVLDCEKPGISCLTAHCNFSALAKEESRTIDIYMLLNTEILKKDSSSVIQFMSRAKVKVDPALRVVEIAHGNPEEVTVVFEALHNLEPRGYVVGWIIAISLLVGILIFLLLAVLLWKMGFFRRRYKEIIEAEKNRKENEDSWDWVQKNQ
α9β1-VCAM-1 Fc chimera, sequence (P05556 21-798, change not shown): as the sequence (P05556 21-798) above

[2] = Jurkat treated with TNF-α (10 ng/mL) for 24 h, read-out: IC50 Jurkat lymphocytes-VACAM-1 TNFα
[3] = untreated Jurkat lymphocytes (α4β1), read-out: IC50 Jurkat lymphocytes-VACAM-1 control

Compound | IC50 (α5β1-fibronectin) [µM] | IC50 (α4β1-VCAM-1 Fc chimera) [µM] | IC50 [1, 2] [µM] | IC50 [1, 3] [µM] | IC50 (α4β7-MAdCAM-1 Fc chimera) [µM] | IC50 (α2β1-collagen I) [µM] | IC50 (α1β1-collagen IV) [µM] | IC50 (α9β1-VCAM-1 Fc chimera) [µM] | IC50 (α4β1-VCAM-1 Fc chimera; ELISA binding assay, recombinant human VCAM-1 chimera, read-out: IC50 α4β1-VCAM-1 Fc chimera) [µM] | IC50 (α4β7-MAdCAM-1 Fc chimera; ELISA binding assay, recombinant human MAdCAM-1 chimera, read-out: IC50 α4β7-MAdCAM-1 Fc chimera) [µM] | IC50 (α9β1-VCAM-1 Fc chimera; ELISA binding assay per footnote b, α9-B1LBC3 overexpressed cells named in footnote a, read-out: IC50 α9β1-VCAM-1 Fc chimera) [µM]
CSCC[C@@H]1NC(=O)[C@H]([C@@H](C)O)NC(=O)CN(C(=O)[C@@H](N)CCCCN)CCNC(=O)NCCN(CC(=O)N[C@@H](CC(C)C)C(N)=O)C(=O)[C@H](CC(=O)O)NC(=O)[C@H](CC(C)C)NC1=O [visabron c (2–2)] (H-K[N(2-Aminoethyl)Gly]TMLD[N(2-Aminoethyl)Gly]L-NH2; linker 2-7 via CO) | > 10000 | 2.3 | 0.5 | 7 | > 500 | > 10000 | > 10000 | 3.6 | – | – | –
CSCC[C@@H]1NC(=O)[C@H]([C@@H](C)O)NC(=O)CN(C(=O)[C@@H](N)CCCCN)CCCCNC(=O)NCCCCN(CC(=O)N[C@@H](CC(C)C)C(N)=O)C(=O)[C@H](CC(=O)O)NC(=O)[C@H](CC(C)C)NC1=O [visabron c (4–4)] (H-K[Nlys]TMLD[Nlys]L-NH2; linker 2-7 via CO) | > 10000 | 0.4 | 0.4 | 5 | > 500 | > 10000 | > 10000 | 0.4 | – | – | –
natalizumab: clinical-grade monoclonal antibody anti-α4β1 produced by Biogen Co. [reference compound] | > 10000 | – | 0.002 | 0.005 | – | > 10000 | > 10000 | – | 0.01 | 0.015 | 0.015
